Patent US9962350B2, “Agent for improving normal development rate of fertilized eggs” (SBI Pharmaceuticals Co., Ltd., priority 2014, dated 2018)

System: C57BL/6J in vitro fertilized eggs
Experiment: Low-temperature in vitro culture of in vitro fertilization-derived fertilized eggs in KSOM or mWM with ALA; embryo development
Format: cell-based, mouse
Method: 5 U (units) of equine chorionic gonadotropin (serum gonadotropin) (ASKA Pharmaceutical Co., Ltd.) were intraperitoneally administered to each female mouse of the C57BL/6J lineage (3.9 weeks old to 4.0 weeks old). […], 5 U (units) of gonadotropin (human chorionic gonadotropin) (ASKA Pharmaceutical Co., Ltd.) were intraperitoneally administered thereto for controlled ovarian hyperstimulation. 15 hours after the administration of gonadotropin, the oviducts were recovered by opening the abdomens. In mineral oil, the ampullae of the oviducts were incised with a dissecting needle, and the ova were recovered into a drop of mHTF medium (ARK Resource Co., Ltd.). Sperms were recovered from the cauda epididymides of C57BL/6J male mice and cultured in mHTF medium at 37° C. for 40 minutes to 1 hour under 5% CO2 conditions for capacitation. 2 μl to 4 μl of the mHTF medium containing the sperms was added to the medium drop containing the recovered ova for insemination, and cultured at 37° C. under 5% CO2 conditions. 4 hours to 6 hours after the insemination, the fertilized eggs were washed with KSOM (ARK Resource Co., Ltd.) or mWM (ARK Resource Co., Ltd.) to remove cumulus cells and sperms. The fertilized eggs were temporarily cultured in KSOM or mWM in an incubator of 37° C. and 5% CO2 until all of the fertilized eggs were recovered.
25 of the fertilized eggs per drop were transferred to a drop (covered with mineral oil (Sigma-Aldrich Corp.)) consisting of 100 μl of ALA-unsupplemented or ALA-supplemented (1 μM or 3 μM) medium (KSOM or mWM). Subsequently, the fertilized eggs were cultured under three conditions: a condition of 37° C. and 5% CO2, a condition of 35° C. and 5% CO2, and a condition of 35.5° C. and 5% CO2. The number of 2-cell eggs was counted 24 hours after the ovum recovery, and the number of blastocysts was counted 96 hours thereafter. Since the development of fertilized eggs obtained by in vitro fertilization is slightly slow, the number of blastocysts was also counted 120 hours after the ovum recovery. The development rate of embryos at each culture time was calculated on the basis of the number of 2-cell embryos 24 hours postfertilization defined as 100%. The results about KSOM are shown in Tables 14 and 15 and FIGS. 9 and 11. The results about mWM are shown in Tables 16 and 17 and FIGS. 10, 12, and 13.

Which “The number of developed embryos in KSOM” value (35° C., 1 μM ALA, 24 hr) does the source give for `NCC(=O)CCC(=O)O` [ALA, 5-aminolevulinic acid] here?
The value was 61.

What about the “The number of developed embryos in KSOM” value (35° C., 1 μM ALA, 48 hr) of the same compound?
The value was 27.

And the “development rate with the number of 2-cell embryos 24 hours postfertilization in KSOM defined as 100%” value (“development rate … in KSOM defined as 100%” below) (35° C., 1 μM ALA, 48 hr)?
The value was 44%.

What about the “The number of developed embryos in KSOM” value (35° C., 1 μM ALA, 72 hr) of the same compound?
The value was 26.

What about the “development rate … in KSOM defined as 100%” value (35° C., 1 μM ALA, 72 hr) of the same compound?
Its value is 43%.

What about the “The number of developed embryos in KSOM” value (35° C., 1 μM ALA, 120 hr) of the same compound?
The value was 22.

What about the “development rate … in KSOM defined as 100%” value (35° C., 1 μM ALA, 120 hr (blastocysts)) of the same compound?
The value was 36%.

What about the “The number of developed embryos in mWM” value (35° C., 1 μM ALA, 24 hr) of the same compound?
The value was 51.

And the “The number of developed embryos in mWM” value (35° C., 1 μM ALA, 48 hr)?
The value was 55.

And the “development rate with the number of 2-cell embryos 24 hours postfertilization in mWM defined as 100%” value (“development rate … in mWM defined as 100%” below) (35° C., 1 μM ALA, 48 hr)?
Its value is 108%.

What about the “The number of developed embryos in mWM” value (35° C., 1 μM ALA, 72 hr) of the same compound?
The value was 46.

What about the “development rate … in mWM defined as 100%” value (35° C., 1 μM ALA, 72 hr) of the same compound?
The value was 90%.

What about the “The number of developed embryos in mWM” value (35° C., 1 μM ALA, 96 hr) of the same compound?
Its value is 29.

And the “development rate … in mWM defined as 100%” value (35° C., 1 μM ALA, 96 hr (blastocysts))?
Its value is 53%.

And the “The number of developed embryos in KSOM” value (35° C., 3 μM ALA, 24 hr)?
The value was 60.

And the “The number of developed embryos in KSOM” value (35° C., 3 μM ALA, 48 hr)?
Its value is 29.

What about the “development rate … in KSOM defined as 100%” value (35° C., 3 μM ALA, 48 hr) of the same compound?
Its value is 48%.

And the “The number of developed embryos in KSOM” value (35° C., 3 μM ALA, 72 hr)?
The value was 27.

And the “development rate … in KSOM defined as 100%” value (35° C., 3 μM ALA, 72 hr)?
The value was 45%.

What about the “The number of developed embryos in KSOM” value (35° C., 3 μM ALA, 120 hr) of the same compound?
Its value is 16.

What about the “development rate … in KSOM defined as 100%” value (35° C., 3 μM ALA, 120 hr (blastocysts)) of the same compound?
The value was 27%.

And the “The number of developed embryos in mWM” value (35° C., 3 μM ALA, 24 hr)?
Its value is 52.

And the “The number of developed embryos in mWM” value (35° C., 3 μM ALA, 48 hr)?
The value was 44.

And the “development rate … in mWM defined as 100%” value (35° C., 3 μM ALA, 48 hr)?
Its value is 85%.

And the “The number of developed embryos in mWM” value (35° C., 3 μM ALA, 72 hr)?
Its value is 27.

And the “development rate … in mWM defined as 100%” value (35° C., 3 μM ALA, 72 hr)?
Its value is 52%.

What about the “The number of developed embryos in mWM” value (35° C., 3 μM ALA, 96 hr) of the same compound?
The value was 20.

What about the “development rate … in mWM defined as 100%” value (35° C., 3 μM ALA, 96 hr (blastocysts)) of the same compound?
The value was 38%.

What about the “The number of developed embryos in mWM” value (35.5° C., 1 μM ALA, 24 hr) of the same compound?
The value was 60.

What about the “The number of developed embryos in mWM” value (35.5° C., 1 μM ALA, 48 hr) of the same compound?
Its value is 60.

What about the “development rate … in mWM defined as 100%” value (35.5° C., 1 μM ALA, 48 hr) of the same compound?
The value was 100%.

What about the “The number of developed embryos in mWM” value (35.5° C., 1 μM ALA, 72 hr) of the same compound?
Its value is 49.

What about the “development rate … in mWM defined as 100%” value (35.5° C., 1 μM ALA, 72 hr) of the same compound?
Its value is 82%.

What about the “The number of developed embryos in mWM” value (35.5° C., 1 μM ALA, 96 hr) of the same compound?
The value was 42.

And the “development rate … in mWM defined as 100%” value (35.5° C., 1 μM ALA, 96 hr (blastocysts))?
The value was 70%.

And the “The number of developed embryos in mWM” value (35.5° C., 3 μM ALA, 24 hr)?
The value was 52.

And the “The number of developed embryos in mWM” value (35.5° C., 3 μM ALA, 48 hr)?
The value was 52.

What about the “development rate … in mWM defined as 100%” value (35.5° C., 3 μM ALA, 48 hr) of the same compound?
Its value is 100%.

What about the “The number of developed embryos in mWM” value (35.5° C., 3 μM ALA, 72 hr) of the same compound?
The value was 46.

And the “development rate … in mWM defined as 100%” value (35.5° C., 3 μM ALA, 72 hr)?
Its value is 88%.

And the “The number of developed embryos in mWM” value (35.5° C., 3 μM ALA, 96 hr)?
Its value is 39.

What about the “development rate … in mWM defined as 100%” value (35.5° C., 3 μM ALA, 96 hr (blastocysts)) of the same compound?
Its value is 75%.
